Test results taken from US20130143929A1, “FUNGICIDAL IMIDAZOLES” (EI DU PONT DE NEMOURS AND COMPANY, priority 2010, published 2013).
Marks after values point to notes of the source that are not given here.

Legend:
Assay type in all cases: in vivo
[1] = test system: Botrytis cinerea (the causal agent of tomato Botrytis); experiment: Test C: tomato Botrytis, preventive spray on tomato seedlings, visual disease rating; details: for Test C rating (100 = 100% disease control, 0 = no disease control relative to the controls): tomato Botrytis, preventive spray on tomato seedlings; for Test C rating (% disease control, tomato Botrytis): 100 = 100% disease control
Summary of the method: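 Preventive test: B. cinerea spore inoculation one day after tomato seedlings were sprayed to run-off with compound suspended in 50/50 acetone–water plus 250 ppm surfactant. Plants held 48 h at 20° C in saturated air, then 3 days at 24° C; visual ratings scored 100 (full control) to 0 versus controls; some entries used 40 ppm.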

[2] = test system: Septoria tritici (the causal agent of wheat leaf blotch); experiment: Test B: wheat leaf blotch, preventive spray on wheat seedlings, visual disease rating; details: for Test B rating (100 = 100% disease control, 0 = no disease control relative to the controls): wheat leaf blotch, preventive spray on wheat seedlings; for Test B rating (% disease control, wheat leaf blotch): 100 = 100% disease control
Summary of the method: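 Preventive test: Septoria tritici spores applied one day after run-off spraying of seedlings (200 ppm equals 800 g/ha; some tests 40 ppm). After 48 h at 24 °C saturated atmosphere and 19 days at 20 °C, disease scored visually as % control relative to untreated plants.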

[3] = test system: Blumeria graminis f. sp. tritici (also known as Erysiphe graminis f. sp. tritici, the causal agent of wheat powdery mildew); experiment: Test D: wheat powdery mildew, preventive spray on wheat seedlings, visual disease rating; details: for Test D rating (100 = 100% disease control, 0 = no disease control relative to the controls): wheat powdery mildew, preventive spray on wheat seedlings; for Test D rating (% disease control, wheat powdery mildew): 100 = 100% disease control
Summary of the method: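 Preventive test: seedlings sprayed to run-off and inoculated with powdery mildew spores one day later. Suspensions were made in 50/50 acetone/water with 250 ppm Trem 014 surfactant (200 ppm equals 800 g/ha). Visual ratings after 8 days at 20 °C give percent disease control versus controls.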

[4] = test system: Puccinia recondite f. sp. tritici (the causal agent of wheat leaf rust); experiment: Test A: wheat leaf rust, preventive spray on wheat seedlings, visual disease rating; details: for Test A rating (100 = 100% disease control, 0 = no disease control relative to the controls): wheat leaf rust, preventive spray on wheat seedlings; for Test A rating (% disease control, wheat leaf rust): 100 = 100% disease control
Summary of the method: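 This was a preventive test: Puccinia recondite f. sp. tritici inoculum was applied one day after compound spray to run-off. Test suspensions were made in 50/50 acetone/water with 250 ppm surfactant, at 200 ppm (800 g/ha equivalent) or 40 ppm. Visual ratings of % disease control relative to controls were made after 24 h of saturated humidity and 7 growth-chamber days, all at 20° C.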

[5] = asterisk: 40 ppm test suspension
[6] = no asterisk (standard test suspension concentration, not 40 ppm)
[7] = asterisk: 40 ppm test suspension, 0 = no control
[8] = no asterisk: standard test suspension concentration, 0 = no control relative to controls

Compound	Test C rating (100 = 100% disease control, 0 = no disease control relative to the controls) [1, 5]	Test B rating (100 = 100% disease control, 0 = no disease control relative to the controls) [2, 5]	Test D rating (100 = 100% disease control, 0 = no disease control relative to the controls) [3, 5]	Test A rating (100 = 100% disease control, 0 = no disease control relative to the controls) [4, 5]	other results
COc1ccc(C(O)c2c(Br)nc(Br)n2-c2c(F)cccc2F)c(Cl)c1 (racemic) [compound 286]	100* %	100* %	97* %	100* %	
Cc1nc(Cl)c(C(O)c2ccc(F)cc2Cl)n1-c1ccc(F)cc1Br (stereo not drawn) [compound 130]	87* %				Test B rating (100 = 100% disease control, 0 = no disease control relative to the controls) [2, 6]: 100%; Test D rating (100 = 100% disease control, 0 = no disease control relative to the controls) [3, 6]: 0%; Test A rating (100 = 100% disease control, 0 = no disease control relative to the controls) [4, 6]: 99%
COc1ccc(C(O)c2c(C)nc(Cl)n2-c2c(F)cccc2F)c(C)c1 (racemic) [compound 220]	100* %	100* %	97* %	100* %	
Cc1ncc(C(O)c2ccc(F)cc2Cl)n1-c1ccc(F)cc1Cl (stereo not drawn) [compound 171]					Test C rating (100 = 100% disease control, 0 = no disease control relative to the controls) [1, 6]: 95%; Test B rating (100 = 100% disease control, 0 = no disease control relative to the controls) [2, 6]: 100%; Test D rating (100 = 100% disease control, 0 = no disease control relative to the controls) [3, 6]: 0%; Test A rating (100 = 100% disease control, 0 = no disease control relative to the controls) [4, 6]: 100%
Cc1nc(Cl)c(C(O)c2ccc(Cl)cc2)n1-c1ccc(Cl)cc1Cl (racemic) [compound 244]	78* %	100* %	21* %	98* %	
Cc1cccc(Cl)c1-n1c(C)nc(Br)c1C(O)c1ccc(F)cc1Cl (stereo not drawn) [compound 343]	84* %	100* %	69* %	96* %	
Cc1nc(Cl)c(C(O)c2c(F)cccc2F)n1-c1c(F)cccc1F (stereo not drawn) [compound 105]	85* %	100* %	64* %	99* %	
Cc1nc(Cl)n(-c2ccc(F)cc2F)c1C(O)c1ccc(Cl)cc1 (stereo not drawn) [compound 163]					Test C rating (100 = 100% disease control, 0 = no disease control relative to the controls) [1, 6]: 100%; Test B rating (100 = 100% disease control, 0 = no disease control relative to the controls) [2, 6]: 100%; Test D rating (100 = 100% disease control, 0 = no disease control relative to the controls) [3, 6]: 13%; Test A rating (100 = 100% disease control, 0 = no disease control relative to the controls) [4, 6]: 98%
OC(c1ccc(F)cc1F)c1c(Cl)nc(Br)n1-c1c(F)cc(F)cc1Cl (stereo not drawn) [compound 121]	100* %	100* %	98* %	100* %	
COc1cc(F)c(-n2c(C)nc(Br)c2C(O)c2ccc(F)cc2Cl)c(F)c1 (stereo not drawn) [compound 392]					Test C rating (% disease control, tomato Botrytis) [1, 7]: 0* %; Test B rating (% disease control, wheat leaf blotch) [2, 7]: 100* %; Test D rating (% disease control, wheat powdery mildew) [3, 7]: 0* %; Test A rating (% disease control, wheat leaf rust) [4, 7]: 99* %
COc1ccc(C(O)c2c(Br)nc(C)n2-c2c(F)cccc2F)c(Cl)c1 (stereo not drawn) [compound 144]	100* %	100* %	99* %	100* %	
Cc1cc(Cl)ccc1C(O)c1c(Br)nc(C)n1-c1c(F)cccc1F (stereo not drawn) [compound 161]	94* %	100* %	84* %	92* %	
Cc1cc(F)ccc1C(O)c1c(Cl)nc(Cl)n1-c1ccc(F)cc1Cl (single isomer, unassigned) [compound 51]					Test C rating (100 = 100% disease control, 0 = no disease control relative to the controls) [1, 6]: 99%; Test B rating (100 = 100% disease control, 0 = no disease control relative to the controls) [2, 6]: 100%; Test D rating (100 = 100% disease control, 0 = no disease control relative to the controls) [3, 6]: 47%; Test A rating (100 = 100% disease control, 0 = no disease control relative to the controls) [4, 6]: 100%
Cc1nc(Br)c(C(O)c2c(F)cccc2F)n1-c1c(F)cccc1F (stereo not drawn) [compound 106]	91* %	100* %	43* %	99* %	
Cc1nc(Cl)c(C(O)c2c(F)cc(F)cc2F)n1-c1ccc(Cl)cc1 (stereo not drawn) [compound 204]					Test C rating (100 = 100% disease control, 0 = no disease control relative to the controls) [1, 6]: 45%; Test B rating (100 = 100% disease control, 0 = no disease control relative to the controls) [2, 6]: 75%; Test D rating (100 = 100% disease control, 0 = no disease control relative to the controls) [3, 6]: 0%; Test A rating (100 = 100% disease control, 0 = no disease control relative to the controls) [4, 6]: 19%
OC(c1ccc(F)cc1F)c1c(Cl)ncn1-c1c(F)cc(Cl)cc1F (stereo not drawn) [compound 120]	99* %	100* %	0* %	98* %	
Cc1nc(Cl)c(C(O)c2ccc(Cl)cc2Cl)n1-c1ccc(F)cc1F (racemic) [compound 270]	0* %	69* %	0* %	95* %	
Cc1cccc(F)c1-n1c(C)nc(Cl)c1C(O)c1ccc(F)cc1Cl (stereo not drawn) [compound 340]	96* %	100* %	89* %	99* %	
COc1ccc(C(O)c2c(Br)nc(C)n2-c2ccc(F)cc2F)c(F)c1 (racemic) [compound 284]	41* %	100* %	0* %	100* %	
Cc1ncc(C(O)c2ccc(F)cc2F)n1-c1ccc(F)cc1Cl (stereo not drawn) [compound 396]					Test C rating (% disease control, tomato Botrytis) [1, 8]: 87%; Test B rating (% disease control, wheat leaf blotch) [2, 8]: 100%; Test D rating (% disease control, wheat powdery mildew) [3, 8]: 0%; Test A rating (% disease control, wheat leaf rust) [4, 8]: 100%
Cc1nc(Br)c(C(O)c2c(F)cc(F)cc2F)n1-c1ccc(F)cc1Cl (stereo not drawn) [compound 141]					Test C rating (100 = 100% disease control, 0 = no disease control relative to the controls) [1, 6]: 99%; Test B rating (100 = 100% disease control, 0 = no disease control relative to the controls) [2, 6]: 100%; Test D rating (100 = 100% disease control, 0 = no disease control relative to the controls) [3, 6]: 96%; Test A rating (100 = 100% disease control, 0 = no disease control relative to the controls) [4, 6]: 100%
Cc1ncc(C(O)c2ccc(F)cc2Cl)n1-c1c(F)cc(Cl)cc1F (stereo not drawn) [compound 115]	97* %	96* %	0* %	100* %	
Cc1ncc(C(O)c2ccc(F)cc2F)n1-c1ccc(F)cc1F (stereo not drawn) [compound 381]					Test C rating (% disease control, tomato Botrytis) [1, 8]: 0%; Test B rating (% disease control, wheat leaf blotch) [2, 8]: 97%; Test D rating (% disease control, wheat powdery mildew) [3, 8]: 0%; Test A rating (% disease control, wheat leaf rust) [4, 8]: 88%
COc1ccc(C(O)c2c(C)nc(Cl)n2-c2c(F)cccc2Cl)c(F)c1 (stereo not drawn) [compound 210]	100* %	100* %	99* %		Test A rating (100 = 100% disease control, 0 = no disease control relative to the controls) [4, 6]: 100%
